Laboratory results reported in patent US8513227B2, “Inhibition of inflammatory cytokine production with tanshinones” (The Feinstein Institute for Medical Research, priority 2006, dated 2013).

Experiments:
nitric oxide = assay: LPS-induced nitric oxide release (Griess reaction); assay type: cell-based, murine; settings: 100 μM, FIG. 2A lower panel
Protocol: LPS stimulation. Adherent macrophages or monocytes were gently washed with, and cultured in, serum-free OPTI-MEM I medium two hours before stimulation with bacterial endotoxin (lipopolysaccharide, LPS, E. coli 0111:B4, Sigma-Aldrich). At 16 hours after LPS stimulation, levels of HMGB1 in the culture medium were determined as previously described (Chen et al. 2004; Rendon-Mitchell et al. 2003; Wang et al. 1999).
(§1) Nitric oxide assay. The levels of nitric oxide in the culture medium were determined indirectly by measuring NO^2− production with a colorimetric assay based on the Griess reaction (Rendon-Mitchell et al. 2003). NO2-concentrations were determined with reference to a standard curve generated with sodium nitrite at various dilutions.

HMGB1 = assay: LPS-induced HMGB1 release in murine peritoneal macrophages; assay type: cell-based; settings: data not shown
Protocol: Cell culture. Murine macrophage-like RAW 264.7 cells were obtained from the American Type Culture Collection (ATCC, Rockville, Md.), and primary peritoneal macrophages were isolated from Balb/C mice (male, 7-8 weeks, 20-25 grams) at 2-3 days after intraperitoneal injection of 2 ml thioglycollate broth (4%) as previously described (Chen et al. 2004; Rendon-Mitchell et al. 2003). Murine macrophages were pre-cultured in RPMI 1640 medium (Gibco BRL, Grand Island, N.Y.) supplemented with 10% fetal bovine serum (FBS) and 2 mmol/L glutamine. […]
LPS stimulation. […] At 16 hours after LPS stimulation, levels of HMGB1 in the culture medium were determined as previously described (Chen et al. 2004; Rendon-Mitchell et al. 2003; Wang et al. 1999).
(§2) HMGB1 western blotting analysis. The levels of HMGB1 in the culture medium or serum were determined by western blotting analysis as previously described (Chen et al. 2004; Rendon-Mitchell et al. 2003; Wang et al. 1999). The relative band intensity was quantified using NIH image 1.59 software to determine HMGB1 levels with reference to standard curves generated with purified HMGB1.

lethal sepsis = assay: Lethal sepsis induced by cecal ligation and puncture (CLP) in Balb/C mice; assay type: in vivo
Protocol: (§3) Animal models of endotoxemia and sepsis. This study was approved and performed in accordance with the guidelines for the care and use of laboratory animals at the Feinstein Institute for Medical Research, Manhasset, N.Y. Endotoxemia was induced in Balb/C mice (male, 7-8 weeks) by intraperitoneal injection of bacterial endotoxin (LPS, 15 mg/kg) as previously described (Chen et al. 2005; Wang et al. 1999; Wang et al. 2006). Sepsis was induced in male Balb/C mice (7-8 weeks, 20-25 g) or Sprague-Dawley rats (290-310 g) by cecal ligation and puncture (CLP) as previously described (Wang et al. 2006; Yang et al. 2002b). Herbal components were administered intraperitoneally into mice at indicated doses and time points, and mice were monitored for survival for up to two weeks. In parallel experiments, mice were euthanized to collect blood at 28 h (following two doses of herbal components at −0.5 and +24 h) after endotoxemia, and at 52 h (following two doses of herbal components at +24 and +48 h) after CLP.
TNF ELISA. The levels of TNF in the culture medium or serum were determined using commercial enzyme linked immunosorbent assay (ELISA) kits (Catalog no. MTA00, R & D Systems, Minneapolis, Minn.) with reference to standard curves of purified recombinant TNF at various dilutions as previously described (Chen et al. 2004; Rendon-Mitchell et al. 2003; Wang et al. 2006).
as §1, §2
Tissue histology. At 48 hours after CLP, mice were euthanized in CO2 Chamber, and immediately perfused (transcardially) with phosphate buffer saline and 4% paraformaldehyde. Various tissues were harvested, sectioned, and stained with hematoxylin and eosin for morphology evaluation.

TNF = assay: LPS-mediated TNF secretion in RAW 264.7 macrophages (ELISA); assay type: cell-based, murine; settings: macrophages stimulated with LPS >200 ng/ml
Protocol: Cell culture. Murine macrophage-like RAW 264.7 cells were obtained from the American Type Culture Collection (ATCC, Rockville, Md.), and primary peritoneal macrophages were isolated from Balb/C mice (male, 7-8 weeks, 20-25 grams) at 2-3 days after intraperitoneal injection of 2 ml thioglycollate broth (4%) as previously described (Chen et al. 2004; Rendon-Mitchell et al. 2003). Murine macrophages were pre-cultured in RPMI 1640 medium (Gibco BRL, Grand Island, N.Y.) supplemented with 10% fetal bovine serum (FBS) and 2 mmol/L glutamine. Human peripheral blood mononuclear cells (HuPBMCs) were isolated from the blood of healthy donors (Long Island Blood Bank, Melville, N.Y.) by density gradient centrifugation through Ficoll (Ficoll-Paque PLUS, Pharmacia, Piscataway, N.J.), and cultured in RPMI 1640 supplemented with 10% heat-inactivated human serum/0.2 mM L-glutamine as previously described (Rendon-Mitchell et al. 2003). LPS stimulation. […] The levels of TNF in the culture medium or serum were determined using commercial enzyme linked immunosorbent assay (ELISA) kits (Catalog no. MTA00, R & D Systems, Minneapolis, Minn.) with reference to standard curves of purified recombinant TNF at various dilutions as previously described (Chen et al. 2004; Rendon-Mitchell et al. 2003; Wang et al. 2006).

lethal endotoxemia = assay: Lethal endotoxemia in Balb/C mice (LPS 15 mg/kg i.p.); assay type: in vivo
Protocol: as §3, §2

## Cc1c(S(=O)(=O)[O-])oc2c1C(=O)C(=O)c1c-2ccc2c1CCCC2(C)C.[Na+] [TSNIIA-SS, tanshinone IIA sodium sulfonate]
Nitric oxide
  effect on LPS-induced release of nitric oxide: did not completely block
HMGB1
  effect on LPS-induced HMGB1 release: effectively inhibited
Lethal sepsis; 15 mg/kg, histology 48 hours post onset of sepsis, control 2 out of 12 survivors
  signs of hepatic necrosis: not observed in any of the 15 survivors
Lethal sepsis; 52 h after the onset of sepsis, vehicle 18.0±4.5 μmol/L, n=3, P>0.05
  circulating nitric oxide levels: 15.5 ± 3.3 µmol/L
Lethal sepsis; 52 h after the onset of sepsis, vehicle 65+15 ng/L, P>0.05
  circulating TNF levels: 85+23 ng/L
Lethal sepsis; repeated administration at 24, 48, 72, 96 hours post sepsis, control 33%, P<0.05
  animal survival rate, lethal sepsis: 73%
Lethal sepsis; repeated administration, 52 h post CLP, FIG. 7A, P<0.05
  circulating HMGB1 levels in septic mice: dose-dependently, and significantly attenuated
Lethal sepsis; single i.p. dose 15 mg/kg 24 h after onset of sepsis, saline control 33%, P>0.05
  survival rate, lethal sepsis: 50%
TNF
  inhibitory effects on TNF release at higher LPS: often lost
Lethal endotoxemia; LPS+vehicle 140±20 ng/ml, n=10, p<0.01
  circulating HMGB1 levels, endotoxemia: 40 ± 25 ng/mL
Lethal endotoxemia; repeated doses (+0.5, +24, +48, 72 hr), dose-dependent, control 20%, FIG. 6A
  animal survival, lethal endotoxemia: 80%
Lethal endotoxemia; single dose 15 mg/kg 30 minutes after LPS, saline control 25%, P>0.05
  animal survival rate, lethal endotoxemia: 37.5%
